Test results reported in publication PMC12892976, “Alkylation-based optimization of antifungal FPPS inhibitors yields a potent, broad-spectrum lipophilic zoledronate derivative” (mBio, 2025).
In brackets after ≈: the same amount, converted by molar mass.

Experiments:
[1] = tested on: Candida auris; experiment: checkerboard drug interaction (FICI, MICc); type: cell-based;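 also: simplified diagonal checkerboard screen pairing antifungals with FPPS inhibitors, with FICI computed under the Loewe additivity model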
Experimental: (§1) Drug interactions between antifungals and FPPS inhibitors were investigated using a simplified checkerboard diagonal screening method ([45]). […] FICIs were determined according to the Loewe additivity model ([17]).

[2] = tested on: Aspergillus felis; experiment: checkerboard drug interaction (FICI, MICc); type: cell-based;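 also: simplified diagonal checkerboard screen pairing antifungals with FPPS inhibitors, FICI calculated under the Loewe additivity model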
Experimental: as §1

[3] = tested on: Cryptococcus gattii; experiment: MIC broth microdilution (CLSI); type: cell-based; details: Cryptococcus gattii PNG27
Experimental: (§2) Antifungal susceptibility was determined by broth microdilution according to the CLSI guidelines described in M27-Ed4 ([16]).

[4] = tested on: Trichophyton soudanense; experiment: checkerboard drug interaction (FICI, MICc); type: cell-based;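 also: simplified diagonal checkerboard screen pairing antifungals with FPPS inhibitors, FICI computed under the Loewe additivity model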
Experimental: as §1

[5] = tested on: Microsporum canis; experiment: checkerboard drug interaction (FICI, MICc); type: cell-based;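 also: simplified diagonal checkerboard screen pairing antifungals with FPPS inhibitors, FICI calculated under the Loewe additivity model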
Experimental: as §1

[6] = tested on: Cryptococcus deneoformans; experiment: checkerboard drug interaction (FICI, MICc); type: cell-based;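 also: simplified diagonal checkerboard screen pairing antifungals with FPPS inhibitors, FICI calculated under the Loewe additivity model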
Experimental: as §1

[7] = tested on: Aspergillus frankstonensis; experiment: MIC broth microdilution (CLSI); type: cell-based; details: Aspergillus frankstonensis DTO 341-F3
Experimental: as §2

[8] = tested on: Rhizopus oryzae; experiment: MIC broth microdilution (CLSI); type: cell-based; details: Rhizopus oryzae 04-14-364-1703
Experimental: as §2

[9] = tested on: Pichia kudriavzevii; experiment: MIC broth microdilution (CLSI); type: cell-based; details: Pichia kudriavzavii ATCC 6258
Experimental: (§3) Antifungal susceptibility was determined by broth microdilution according to the CLSI guidelines described in M27-Ed4 ([16]). […] MFC was determined by back-plating drug-treated cultures from MIC broths onto SDA plates. The MFC was defined as the lowest concentration from which no colonies could be cultured.

[10] = tested on: Aspergillus felis; experiment: MIC broth microdilution (CLSI); type: cell-based; details: Aspergillus felis IHE87256683D6
Experimental: as §2

[11] = tested on: Cryptococcus bacillisporus; experiment: MIC broth microdilution (CLSI); type: cell-based; details: Cryptococcus bacillisporus NIH179
Experimental: as §2

[12] = tested on: Cryptococcus bacillisporus; experiment: checkerboard drug interaction (FICI, MICc); type: cell-based;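 also: interaction of antifungals with FPPS inhibitors assessed by a simplified diagonal checkerboard screen, with FICI computed under the Loewe additivity model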
Experimental: as §1

[13] = tested on: Trichophyton tonsurans; experiment: MIC broth microdilution (CLSI); details: Trichophyton tonsurans R-168
Experimental: as §2

[14] = tested on: Cryptococcus gattii; experiment: checkerboard drug interaction (FICI, MICc); type: cell-based;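 also: simplified diagonal checkerboard screen pairing antifungals with FPPS inhibitors, FICI computed under the Loewe additivity model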
Experimental: as §1

[15] = tested on: Scedosporium apiospermum; experiment: MIC broth microdilution (CLSI); type: cell-based; details: Scedosporium apiospermum 04-16-022-2268
Experimental: as §2

[16] = tested on: Trichophyton interdigitale; experiment: checkerboard drug interaction (FICI, MICc);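 also: simplified diagonal checkerboard screen pairing antifungals with FPPS inhibitors, FICI values calculated under the Loewe additivity model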
Experimental: as §1

[17] = tested on: Aspergillus niger; experiment: MIC broth microdilution (CLSI); type: cell-based; details: Aspergillus niger 111
Experimental: as §2

[18] = tested on: Aspergillus udagawae; experiment: checkerboard drug interaction (FICI, MICc); type: cell-based;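 also: simplified diagonal checkerboard screen pairing antifungals with FPPS inhibitors, FICI calculated using the Loewe additivity model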
Experimental: as §1

[19] = tested on: Candida tropicalis; experiment: MIC broth microdilution (CLSI); type: cell-based; details: Candida tropicalis M230640
Experimental: as §2

[20] = tested on: Candida tropicalis; experiment: checkerboard drug interaction (FICI, MICc); type: cell-based;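 also: simplified diagonal checkerboard screen of antifungal plus FPPS inhibitor combinations, with FICI computed by the Loewe additivity model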
Experimental: as §1

[21] = tested on: Aspergillus frankstonensis; experiment: checkerboard drug interaction (FICI, MICc);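 also: simplified diagonal checkerboard screen pairing antifungals with FPPS inhibitors, FICI calculated using the Loewe additivity model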
Experimental: as §1

[22] = tested on: Candida parapsilosis; experiment: MIC broth microdilution (CLSI); type: cell-based; details: Candida parapsilosis ATCC 22018
Experimental: as §3

[23] = tested on: Paraphyton cookei; experiment: MIC broth microdilution (CLSI); type: cell-based; details: Paraphyton cookei R-639
Experimental: as §2

[24] = tested on: Candida parapsilosis; experiment: checkerboard drug interaction (FICI, MICc); type: cell-based;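 also: simplified diagonal checkerboard screen pairing antifungals with FPPS inhibitors, with FICI computed under the Loewe additivity model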
Experimental: as §1

[25] = tested on: Nannizzia nana; experiment: MIC broth microdilution (CLSI); type: cell-based; details: Nannizzia nana R-133
Experimental: as §2

[26] = tested on: Lomentospora prolificans; experiment: MIC broth microdilution (CLSI); type: cell-based; details: Lomentospora prolificans 80-16-101-2445
Experimental: as §2

[27] = tested on: Aspergillus lentulus; experiment: checkerboard drug interaction (FICI, MICc); type: cell-based;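 also: simplified diagonal checkerboard screen pairing antifungals with FPPS inhibitors, with the interaction index calculated under the Loewe additivity model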
Experimental: as §1

[28] = tested on: Microsporum canis; experiment: MIC broth microdilution (CLSI); details: Microsporum canis R-232
Experimental: as §2

[29] = tested on: Aspergillus parafelis; experiment: checkerboard drug interaction (FICI, MICc);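 also: simplified diagonal checkerboard screen pairing antifungals with FPPS inhibitors, FICI calculated under the Loewe additivity model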
Experimental: as §1

[30] = tested on: Aspergillus terreus; experiment: MIC broth microdilution (CLSI); type: cell-based; details: Aspergillus terreus 75-16-089-2500
Experimental: as §2

[31] = tested on: Mucor circinelloides; experiment: checkerboard drug interaction (FICI, MICc); type: cell-based
Experimental: as §1

[32] = tested on: Rhizopus oryzae; experiment: checkerboard drug interaction (FICI, MICc); type: cell-based
Experimental: as §1

[33] = tested on: Aspergillus lentulus; experiment: MIC broth microdilution (CLSI); type: cell-based; details: Aspergillus lentulus DTO 341-G7
Experimental: as §2

[34] = tested on: Nannizzia nana; experiment: checkerboard drug interaction (FICI, MICc); type: cell-based
Experimental: as §1

[35] = tested on: Epidermophyton floccosum; experiment: MIC broth microdilution (CLSI); type: cell-based; details: Epidermophyon floccosum R-113
Experimental: as §2

SMILES: CC[C@H](C)C[C@H](C)CCCCCCCCC(=O)N[C@H]1C[C@@H](O)[C@@H](NCCN)NC(=O)[C@@H]2[C@@H](O)CCN2C(=O)[C@H]([C@H](O)CCN)NC(=O)[C@H]([C@H](O)[C@@H](O)c2ccc(O)cc2)NC(=O)[C@@H]2C[C@@H](O)CN2C(=O)[C@H]([C@@H](C)O)NC1=O [CAS, caspofungin]
- antifungal MICc ([1]; in combination with 10-ZOL): 0.5
- antifungal MICc ([1]; in combination with ZOL): 4
- antifungal MICc ([2]; in combination with 10-ZOL): 0.5
- antifungal MICc ([2]; in combination with ZOL): 0.5
- MIC / MEC [3]: 8 µg/mL (≈ 7.32 µM)
- antifungal MICc ([4]; in combination with 10-ZOL): 0.5
- antifungal MICc ([4]; in combination with ZOL): 1
- antifungal MICc ([5]; in combination with 10-ZOL): 0.25
- antifungal MICc ([5]; in combination with ZOL): 0.125
- antifungal MICc ([6]; in combination with 10-ZOL): 2
- antifungal MICc ([6]; in combination with ZOL): 8
- MIC / MEC [7]: 0.13 µg/mL (≈ 0.119 µM)
- MIC / MEC [8]: >16 µg/mL
- MIC / MEC [9]: 1 µg/mL (≈ 0.915 µM)
- MIC / MEC [10]: 0.25 µg/mL (≈ 0.229 µM)
- MIC / MEC [11]: 8 µg/mL (≈ 7.32 µM)
- antifungal MICc ([12]; in combination with 10-ZOL): 2
- antifungal MICc ([12]; in combination with ZOL): 8
- MIC / MEC [13]: 0.5 µg/mL (≈ 0.457 µM)
- antifungal MICc ([14]; in combination with 10-ZOL): 2
- antifungal MICc ([14]; in combination with ZOL): 16
- MIC / MEC [15]: 16 µg/mL (≈ 14.6 µM)
- antifungal MICc ([16]; in combination with 10-ZOL): 0.5
- antifungal MICc ([16]; in combination with ZOL): 0.25
- MIC / MEC [17]: 4 µg/mL (≈ 3.66 µM)
- antifungal MICc ([18]; in combination with 10-ZOL): 1
- antifungal MICc ([18]; in combination with ZOL): 2
- MIC / MEC [19]: 0.06 µg/mL (≈ 0.0549 µM)
- antifungal MICc ([20]; in combination with 10-ZOL): 0.25
- antifungal MICc ([20]; in combination with ZOL): 0.02
- antifungal MICc ([21]; in combination with 10-ZOL): 0.125
- antifungal MICc ([21]; in combination with ZOL): 0.5
- MIC / MEC [22]: 1 µg/mL (≈ 0.915 µM)
- MIC / MEC [23]: 0.25 µg/mL (≈ 0.229 µM)
- antifungal MICc ([24]; in combination with 10-ZOL): 0.25
- antifungal MICc ([24]; in combination with ZOL): 0.5
- MIC / MEC [25]: 0.13 µg/mL (≈ 0.119 µM)
- MIC / MEC [26]: >16 µg/mL
- antifungal MICc ([27]; in combination with 10-ZOL): 4
- antifungal MICc ([27]; in combination with ZOL): 2
- MIC / MEC [28]: 0.25 µg/mL (≈ 0.229 µM)
- antifungal MICc ([29]; in combination with 10-ZOL): 0.5
- antifungal MICc ([29]; in combination with ZOL): 0.065
- MIC / MEC [30]: 2 µg/mL (≈ 1.83 µM)
- antifungal MICc ([31]; in combination with 10-ZOL): 128
- antifungal MICc ([31]; in combination with ZOL): 16
- antifungal MICc ([32]; in combination with 10-ZOL): 128
- antifungal MICc ([32]; in combination with ZOL): 4
- MIC / MEC [33]: 4 µg/mL (≈ 3.66 µM)
- antifungal MICc ([34]; in combination with 10-ZOL): 0.25
- antifungal MICc ([34]; in combination with ZOL): 0.033
- MIC / MEC [35]: 0.13 µg/mL (≈ 0.119 µM)

SMILES: CC(=O)N1CCN(c2ccc(OCC3COC(Cn4ccnc4)(c4ccc(Cl)cc4Cl)O3)cc2)CC1 (centres unmarked) [KET, ketoconazole]
- antifungal MICc ([1]; in combination with 10-ZOL): 1
- antifungal MICc ([1]; in combination with ZOL): 1
- antifungal MICc ([2]; in combination with 10-ZOL): 4
- antifungal MICc ([2]; in combination with ZOL): 8
- MIC / MEC [3]: 0.5 µg/mL (≈ 0.941 µM)
- antifungal MICc ([4]; in combination with 10-ZOL): 0.5
- antifungal MICc ([4]; in combination with ZOL): 1
- antifungal MICc ([5]; in combination with 10-ZOL): 1
- antifungal MICc ([5]; in combination with ZOL): 4
- antifungal MICc ([6]; in combination with 10-ZOL): 0.063
- antifungal MICc ([6]; in combination with ZOL): 0.03125
- MIC / MEC [7]: 8 µg/mL (≈ 15.1 µM)
- MIC / MEC [8]: >16 µg/mL
- MIC / MEC [9]: 0.25 µg/mL (≈ 0.47 µM)
- MIC / MEC [10]: 16 µg/mL (≈ 30.1 µM)
- MIC / MEC [11]: 0.25 µg/mL (≈ 0.47 µM)
- antifungal MICc ([12]; in combination with 10-ZOL): 0.125
- antifungal MICc ([12]; in combination with ZOL): 0.25
- MIC / MEC [13]: 4 µg/mL (≈ 7.53 µM)
- antifungal MICc ([14]; in combination with 10-ZOL): 0.125
- antifungal MICc ([14]; in combination with ZOL): 0.5
- MIC / MEC [15]: 8 µg/mL (≈ 15.1 µM)
- antifungal MICc ([16]; in combination with 10-ZOL): 0.5
- antifungal MICc ([16]; in combination with ZOL): 2
- MIC / MEC [17]: 8 µg/mL (≈ 15.1 µM)
- antifungal MICc ([18]; in combination with 10-ZOL): 0.5
- antifungal MICc ([18]; in combination with ZOL): 2
- MIC / MEC [19]: 8 µg/mL (≈ 15.1 µM)
- antifungal MICc ([20]; in combination with 10-ZOL): 4
- antifungal MICc ([20]; in combination with ZOL): 0.5
- antifungal MICc ([21]; in combination with 10-ZOL): 1
- antifungal MICc ([21]; in combination with ZOL): 4
- MIC / MEC [22]: 0.03 µg/mL (≈ 0.0565 µM)
- MIC / MEC [23]: 8 µg/mL (≈ 15.1 µM)
- antifungal MICc ([24]; in combination with 10-ZOL): 0.015
- antifungal MICc ([24]; in combination with ZOL): 0.03
- MIC / MEC [25]: 0.5 µg/mL (≈ 0.941 µM)
- MIC / MEC [26]: 4 µg/mL (≈ 7.53 µM)
- antifungal MICc ([27]; in combination with 10-ZOL): 4
- antifungal MICc ([27]; in combination with ZOL): 4
- MIC / MEC [28]: 16 µg/mL (≈ 30.1 µM)
- antifungal MICc ([29]; in combination with 10-ZOL): 16
- antifungal MICc ([29]; in combination with ZOL): 32
- MIC / MEC [30]: 2 µg/mL (≈ 3.76 µM)
- antifungal MICc ([31]; in combination with 10-ZOL): 4
- antifungal MICc ([31]; in combination with ZOL): 8
- antifungal MICc ([32]; in combination with 10-ZOL): 4
- antifungal MICc ([32]; in combination with ZOL): 16
- MIC / MEC [33]: 16 µg/mL (≈ 30.1 µM)
- antifungal MICc ([34]; in combination with 10-ZOL): 0.5
- antifungal MICc ([34]; in combination with ZOL): 0.13
- MIC / MEC [35]: 2 µg/mL (≈ 3.76 µM)
